{
  "source": "BindingDB's records for doi:10.1016/s0960-894x(02)00205-6",
  "about": "(Southern Methodist University, 2002)",
  "data": [
    {"assay": "Inhibitory activity against class A TEM-1 beta-lactamase", "units": {"IC50": "nM"}, "values": [
      {"smiles": "O=C(O)C1=C(C(=O)O)N2C(=O)/C(=C/c3ccccn3)[C@H]2S(=O)(=O)C1", "note": "[Disodium; (R)-3-carboxy-5,5,8-trioxo-7-[1-pyridin-2-yl-meth-(Z)-ylidene]-5lambda*6*-thia-1-aza-bicyclo[4.2.0]oct-2-ene-2-carboxylate]", "IC50": 10400},
      {"smiles": "O=C(/C=C/C1=C(C(=O)O)N2C(=O)/C(=C/c3ccccn3)[C@H]2S(=O)(=O)C1)NCc1ccccc1", "note": "[Sodium; (R)-3-((E)-2-benzylcarbamoyl-vinyl)-5,5,8-trioxo-7-[1-pyridin-2-yl-meth-(Z)-ylidene]-5lambda*6*-thia-1-aza-bicyclo[4.2.0]oct-2-ene-2-carboxylate]", "IC50": 1400},
      {"smiles": "NC(=O)/C=C/C1=C(C(=O)O)N2C(=O)/C(=C/c3ccccn3)[C@H]2S(=O)(=O)C1", "note": "[Sodium; (R)-3-((E)-2-carbamoyl-vinyl)-5,5,8-trioxo-7-[1-pyridin-2-yl-meth-(Z)-ylidene]-5lambda*6*-thia-1-aza-bicyclo[4.2.0]oct-2-ene-2-carboxylate]", "IC50": 262},
      {"smiles": "O=C(/C=C/C1=C(C(=O)O)N2C(=O)/C(=C/c3ccccn3)[C@H]2S(=O)(=O)C1)NC1CC1", "note": "[Sodium; (R)-3-((E)-2-cyclopropylcarbamoyl-vinyl)-5,5,8-trioxo-7-[1-pyridin-2-yl-meth-(Z)-ylidene]-5lambda*6*-thia-1-aza-bicyclo[4.2.0]oct-2-ene-2-carboxylate]", "IC50": 240},
      {"smiles": "NNC(=O)/C=C/C1=C(C(=O)O)N2C(=O)/C(=C/c3ccccn3)[C@H]2S(=O)(=O)C1", "note": "[Sodium; (R)-3-((E)-2-hydrazinocarbonyl-vinyl)-5,5,8-trioxo-7-[1-pyridin-2-yl-meth-(Z)-ylidene]-5lambda*6*-thia-1-aza-bicyclo[4.2.0]oct-2-ene-2-carboxylate]", "IC50": 390},
      {"smiles": "O=C(/C=C/C1=C(C(=O)O)N2C(=O)/C(=C/c3ccccn3)[C@H]2S(=O)(=O)C1)NO", "note": "[Sodium; (R)-3-((E)-2-hydroxycarbamoyl-vinyl)-5,5,8-trioxo-7-[1-pyridin-2-yl-meth-(Z)-ylidene]-5lambda*6*-thia-1-aza-bicyclo[4.2.0]oct-2-ene-2-carboxylate]", "IC50": 7690},
      {"smiles": "N=C(N)NCCNC(=O)C=CC1=C(C(=O)O)N2C(=O)C(=Cc3ccccn3)[C@H]2S(=O)(=O)C1", "note": "[Sodium; (R)-3-[(E)-2-(2-guanidino-ethylcarbamoyl)-vinyl]-5,5,8-trioxo-7-[1-pyridin-2-yl-meth-(Z)-ylidene]-5lambda*6*-thia-1-aza-bicyclo[4.2.0]oct-2-ene-2-carboxylate]", "IC50": 8.3},
      {"smiles": "O=C(/C=C/C1=C(C(=O)O)N2C(=O)/C(=C/c3ccccn3)[C@H]2S(=O)(=O)C1)NCCO", "note": "[Sodium; (R)-3-[(E)-2-(2-hydroxy-ethylcarbamoyl)-vinyl]-5,5,8-trioxo-7-[1-pyridin-2-yl-meth-(Z)-ylidene]-5lambda*6*-thia-1-aza-bicyclo[4.2.0]oct-2-ene-2-carboxylate]", "IC50": 70},
      {"smiles": "NCCCNC(=O)/C=C/C1=C(C(=O)O)N2C(=O)/C(=C/c3ccccn3)[C@H]2S(=O)(=O)C1", "note": "[Sodium; (R)-3-[(E)-2-(3-amino-propylcarbamoyl)-vinyl]-5,5,8-trioxo-7-[1-pyridin-2-yl-meth-(Z)-ylidene]-5lambda*6*-thia-1-aza-bicyclo[4.2.0]oct-2-ene-2-carboxylate]", "IC50": 1590},
      {"smiles": "O=C(/C=C/C1=C(C(=O)O)N2C(=O)/C(=C/c3ccccn3)[C@H]2S(=O)(=O)C1)Nc1ccc(O)cc1", "note": "[Sodium; (R)-3-[(E)-2-(4-hydroxy-phenylcarbamoyl)-vinyl]-5,5,8-trioxo-7-[1-pyridin-2-yl-meth-(Z)-ylidene]-5lambda*6*-thia-1-aza-bicyclo[4.2.0]oct-2-ene-2-carboxylate]", "IC50": 110},
      {"smiles": "CN1CCN(C(=O)/C=C/C2=C(C(=O)O)N3C(=O)/C(=C/c4ccccn4)[C@H]3S(=O)(=O)C2)CC1", "note": "[Sodium; (R)-3-[(E)-3-(4-methyl-piperazin-1-yl)-3-oxo-propenyl]-5,5,8-trioxo-7-[1-pyridin-2-yl-meth-(Z)-ylidene]-5lambda*6*-thia-1-aza-bicyclo[4.2.0]oct-2-ene-2-carboxylate]", "IC50": 53},
      {"smiles": "O=C(O)C1=C(S(=O)(=O)c2ccccc2)CS(=O)(=O)[C@@H]2/C(=C\\c3ccccn3)C(=O)N12", "note": "[Sodium; (R)-3-benzenesulfonyl-5,5,8-trioxo-7-[1-pyridin-2-yl-meth-(Z)-ylidene]-5lambda*6*-thia-1-aza-bicyclo[4.2.0]oct-2-ene-2-carboxylate]", "IC50": 9.4},
      {"smiles": "O=C(O)C1=C(Br)CS(=O)(=O)[C@@H]2/C(=C\\c3ccccn3)C(=O)N12", "note": "[Sodium; (R)-3-bromo-5,5,8-trioxo-7-[1-pyridin-2-yl-meth-(Z)-ylidene]-5lambda*6*-thia-1-aza-bicyclo[4.2.0]oct-2-ene-2-carboxylate]", "IC50": 791},
      {"smiles": "O=C(O)C1=C(Cl)CS(=O)(=O)[C@@H]2/C(=C\\c3ccccn3)C(=O)N12", "note": "[Sodium; (R)-3-chloro-5,5,8-trioxo-7-[1-pyridin-2-yl-meth-(Z)-ylidene]-5lambda*6*-thia-1-aza-bicyclo[4.2.0]oct-2-ene-2-carboxylate]", "IC50": 1820},
      {"smiles": "O=C(O)C1=C(F)CS(=O)(=O)[C@@H]2/C(=C\\c3ccccn3)C(=O)N12", "note": "[Sodium; (R)-3-fluoro-5,5,8-trioxo-7-[1-pyridin-2-yl-meth-(Z)-ylidene]-5lambda*6*-thia-1-aza-bicyclo[4.2.0]oct-2-ene-2-carboxylate]", "IC50": 1840},
      {"smiles": "O=C(O)C1=C(I)CS(=O)(=O)[C@@H]2/C(=C\\c3ccccn3)C(=O)N12", "note": "[Sodium; (R)-3-iodo-5,5,8-trioxo-7-[1-pyridin-2-yl-meth-(Z)-ylidene]-5lambda*6*-thia-1-aza-bicyclo[4.2.0]oct-2-ene-2-carboxylate]", "IC50": 1280},
      {"smiles": "CS(=O)(=O)C1=C(C(=O)O)N2C(=O)/C(=C/c3ccccn3)[C@H]2S(=O)(=O)C1", "note": "[Sodium; (R)-3-methanesulfonyl-5,5,8-trioxo-7-[1-pyridin-2-yl-meth-(Z)-ylidene]-5lambda*6*-thia-1-aza-bicyclo[4.2.0]oct-2-ene-2-carboxylate]", "IC50": 7.6},
      {"smiles": "CSC1=C(C(=O)O)N2C(=O)/C(=C/c3ccccn3)[C@H]2S(=O)(=O)C1", "note": "[Sodium; (R)-3-methylsulfanyl-5,5,8-trioxo-7-[1-pyridin-2-yl-meth-(Z)-ylidene]-5lambda*6*-thia-1-aza-bicyclo[4.2.0]oct-2-ene-2-carboxylate]", "IC50": 1060},
      {"smiles": "O=C(/C=C/C1=C(C(=O)O)N2C(=O)/C(=C/c3ccccn3)[C@H]2S(=O)(=O)C1)Nc1c(F)c(F)c(F)c(F)c1F", "note": "[Sodium; (R)-5,5,8-trioxo-3-((E)-2-pentafluorophenylcarbamoyl-vinyl)-7-[1-pyridin-2-yl-meth-(Z)-ylidene]-5lambda*6*-thia-1-aza-bicyclo[4.2.0]oct-2-ene-2-carboxylate]", "IC50": 4280},
      {"smiles": "O=C(O)C1=C(c2ccccc2)CS(=O)(=O)[C@@H]2/C(=C\\c3ccccn3)C(=O)N12", "note": "[Sodium; (R)-5,5,8-trioxo-3-phenyl-7-[1-pyridin-2-yl-meth-(Z)-ylidene]-5lambda*6*-thia-1-aza-bicyclo[4.2.0]oct-2-ene-2-carboxylate]", "IC50": 9140},
      {"smiles": "O=C(O)C1=C(Sc2ccccc2)CS(=O)(=O)[C@@H]2/C(=C\\c3ccccn3)C(=O)N12", "note": "[Sodium; (R)-5,5,8-trioxo-3-phenylsulfanyl-7-[1-pyridin-2-yl-meth-(Z)-ylidene]-5lambda*6*-thia-1-aza-bicyclo[4.2.0]oct-2-ene-2-carboxylate]", "IC50": 12},
      {"smiles": "O=C(/C=C/C1=C(C(=O)O)N2C(=O)/C(=C/c3ccccn3)[C@H]2S(=O)(=O)C1)NCC(F)(F)F", "note": "[Sodium; (R)-5,5,8-trioxo-7-[1-pyridin-2-yl-meth-(Z)-ylidene]-3-[(E)-2-(2,2,2-trifluoro-ethylcarbamoyl)-vinyl]-5lambda*6*-thia-1-aza-bicyclo[4.2.0]oct-2-ene-2-carboxylate]", "IC50": 78},
      {"smiles": "O=C(O)C1=C(c2cccs2)CS(=O)(=O)[C@@H]2/C(=C\\c3ccccn3)C(=O)N12", "note": "[Sodium; (R)-5,5,8-trioxo-7-[1-pyridin-2-yl-meth-(Z)-ylidene]-3-thiophen-2-yl-5lambda*6*-thia-1-aza-bicyclo[4.2.0]oct-2-ene-2-carboxylate]", "IC50": 3540},
      {"smiles": "O=C(O)C1=CCS(=O)(=O)[C@@H]2/C(=C\\c3ccccn3)C(=O)N12", "note": "[Sodium; (R)-5,5,8-trioxo-7-[1-pyridin-2-yl-meth-(Z)-ylidene]-5lambda*6*-thia-1-aza-bicyclo[4.2.0]oct-2-ene-2-carboxylate]", "IC50": 18500}
    ]}
  ]
}
